Source: ChEMBL document CHEMBL1201862, “PubChem BioAssay data set” (2004)
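Interpolation was linear, between the two tested concentrations surrounding the appropriate level; five concentrations were tested over 48 hours in 96-well plates. GI50 is the concentration that inhibits growth by half.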 Activity calls are given as the source filed them. Cut-off read from the data, not from the text of the source: active = GI50 up to about 1.1 µM and inactive = higher.

Columns and labels:
Assay in all cases: DTP human tumour cell line panel, 48 h
SK-MEL-28 = tested on: SK-MEL-28
SW-620 = tested on: SW-620
HCT-116 = tested on: HCT-116
MDA-MB-435 = tested on: MDA-MB-435
HOP-62 = tested on: HOP-62
NCI-H460 = tested on: NCI-H460
TK-10 = tested on: TK-10
HT-29 = tested on: HT-29
A549 = tested on: A549
UO-31 = tested on: UO-31
SF-268 = tested on: SF-268
NCI/ADR-RES = tested on: NCI/ADR-RES
UACC-257 = tested on: UACC-257
U-251 = tested on: U-251
LOX IMVI = tested on: LOX IMVI
OVCAR-8 = tested on: OVCAR-8
SK-OV-3 = tested on: SK-OV-3
HOP-92 = tested on: HOP-92
RPMI-8226 = tested on: RPMI-8226

Measured: GI50

COc1ccc(-c2c3c(n(C4OC(COC(C)=O)C(OC(C)=O)C(OC(C)=O)C4OC(C)=O)c(=S)c2C#N)CCCC3)cc1 (stereo not given)
inactive: SK-MEL-28 61.9 µM | SW-620 51.5 µM | HCT-116 79.4 µM | MDA-MB-435 > 100 µM | HOP-62 89.3 µM | NCI-H460 39.8 µM | TK-10 > 100 µM | HT-29 > 100 µM | A549 64.1 µM | UO-31 64.7 µM | SF-268 34.2 µM | NCI/ADR-RES 54.1 µM | UACC-257 > 100 µM | U-251 45 µM | LOX IMVI > 100 µM | OVCAR-8 69 µM | SK-OV-3 > 100 µM

CCc1cccc(CC)c1NC(=O)CC1SC(N)=NC1=O (stereo not given)
inactive: SK-MEL-28 > 100 µM | SW-620 > 100 µM | HCT-116 > 100 µM | HOP-62 > 100 µM | NCI-H460 > 100 µM | HOP-92 > 100 µM | TK-10 > 100 µM | HT-29 > 100 µM | RPMI-8226 > 100 µM | A549 > 100 µM | UO-31 > 100 µM | SF-268 > 100 µM | UACC-257 > 100 µM | U-251 > 100 µM | LOX IMVI > 100 µM | OVCAR-8 > 100 µM | SK-OV-3 > 100 µM

O=C(COc1ccc(Cl)cc1)N1N=C(c2ccc([N+](=O)[O-])o2)CC1(O)c1ccccc1 (stereo not given)
inactive: SK-MEL-28 12.2 µM | SW-620 4.71 µM | HCT-116 5.27 µM | HOP-62 20 µM | NCI-H460 11.1 µM | HOP-92 20.2 µM | TK-10 8.63 µM | HT-29 4.81 µM | RPMI-8226 2.28 µM | A549 10 µM | UO-31 11.4 µM | SF-268 10.5 µM | UACC-257 4.05 µM | U-251 4.94 µM | LOX IMVI 10.8 µM | OVCAR-8 5.62 µM | SK-OV-3 19.3 µM

CC(=O)/C=C/c1ccc(C)cc1
inactive: SK-MEL-28 > 100 µM | SW-620 > 100 µM | HCT-116 > 100 µM | HOP-62 > 100 µM | NCI-H460 > 100 µM | HOP-92 > 100 µM | TK-10 > 100 µM | HT-29 > 100 µM | RPMI-8226 > 100 µM | A549 > 100 µM | UO-31 > 100 µM | SF-268 > 100 µM | UACC-257 > 100 µM | U-251 > 100 µM | LOX IMVI > 100 µM | OVCAR-8 > 100 µM | SK-OV-3 > 100 µM

COC1CC(OS(=O)(=O)c2ccc(C)cc2)C(OC(=O)c2ccccc2)C(C)O1 (stereo not given)
inactive: SK-MEL-28 > 10 µM | SW-620 > 10 µM | HCT-116 > 10 µM | HOP-62 > 10 µM | NCI-H460 > 10 µM | HOP-92 99.1 µM | TK-10 > 10 µM | HT-29 > 10 µM | RPMI-8226 > 100 µM | A549 > 10 µM | UO-31 > 10 µM | SF-268 > 100 µM | UACC-257 > 10 µM | U-251 > 10 µM | LOX IMVI > 10 µM | OVCAR-8 > 10 µM | SK-OV-3 > 10 µM

O=C(NCCS(=O)(=O)N1C(=O)C2CCCN2C(=O)[C@@H]1Cc1ccccc1)OCc1ccccc1 (stereo not given in full)
inactive: SK-MEL-28 78.3 µM | SW-620 90.4 µM | HCT-116 39.5 µM | HOP-62 99.8 µM | NCI-H460 40.4 µM | HOP-92 27.7 µM | TK-10 38.1 µM | HT-29 42.8 µM | RPMI-8226 23.3 µM | A549 41.1 µM | UO-31 28.2 µM | SF-268 45.6 µM | UACC-257 48.2 µM | U-251 55.3 µM | LOX IMVI 50.6 µM | OVCAR-8 69.8 µM | SK-OV-3 > 100 µM

CC(C)N(C(=O)C12C3C4C1C1C2C3C41C#N)C(C)C (stereo not given)
inactive: SK-MEL-28 > 100 µM | SW-620 > 54.5 µM | HCT-116 > 100 µM | HOP-62 > 100 µM | NCI-H460 > 100 µM | HOP-92 > 100 µM | TK-10 > 100 µM | HT-29 > 100 µM | RPMI-8226 > 46.7 µM | A549 > 100 µM | UO-31 > 100 µM | SF-268 > 100 µM | UACC-257 > 100 µM | U-251 > 100 µM | LOX IMVI > 47.1 µM | OVCAR-8 > 100 µM | SK-OV-3 > 100 µM

O=C(O)CSc1nnc(COc2ccc(Cl)cc2)n1-c1ccccc1
inactive: SK-MEL-28 > 100 µM | SW-620 > 100 µM | HCT-116 > 100 µM | MDA-MB-435 > 100 µM | HOP-62 > 100 µM | NCI-H460 > 100 µM | HOP-92 > 100 µM | TK-10 > 100 µM | HT-29 > 100 µM | A549 > 100 µM | UO-31 > 100 µM | SF-268 > 100 µM | NCI/ADR-RES > 100 µM | UACC-257 > 100 µM | U-251 > 100 µM | LOX IMVI > 100 µM | OVCAR-8 > 100 µM | SK-OV-3 > 100 µM

COc1ccc(C2=C3c4cc(OC)c(OC)cc4CCN3C(=S)SS2)cc1OC
inactive: SK-MEL-28 70.6 µM | SW-620 95.9 µM | HCT-116 > 100 µM | HOP-62 > 100 µM | NCI-H460 > 100 µM | HOP-92 32.1 µM | TK-10 > 100 µM | HT-29 72.8 µM | RPMI-8226 63.2 µM | A549 > 100 µM | UO-31 > 100 µM | SF-268 72.1 µM | UACC-257 72.4 µM | U-251 61.1 µM | LOX IMVI 40.8 µM | OVCAR-8 > 100 µM | SK-OV-3 > 100 µM

C=CC(=O)NC(=N)NC#N
inactive: SK-MEL-28 131 µM | SW-620 > 76.2 µM | HCT-116 189 µM | HOP-62 210 µM | NCI-H460 176 µM | HOP-92 > 39.4 µM | TK-10 142 µM | HT-29 189 µM | RPMI-8226 22 µM | A549 195 µM | UO-31 176 µM | SF-268 121 µM | NCI/ADR-RES > 100 µM | UACC-257 125 µM | U-251 158 µM | LOX IMVI > 74.6 µM | OVCAR-8 214 µM | SK-OV-3 175 µM

O=C1CSC(c2c[nH]c3ccccc23)N1c1cccc([N+](=O)[O-])c1 (stereo not given)
inactive: SK-MEL-28 > 100 µM | SW-620 > 100 µM | HCT-116 73.1 µM | MDA-MB-435 38.3 µM | HOP-62 > 100 µM | NCI-H460 28.8 µM | HOP-92 32.6 µM | TK-10 81.8 µM | HT-29 > 100 µM | RPMI-8226 > 100 µM | A549 > 100 µM | UO-31 42.7 µM | SF-268 > 100 µM | UACC-257 > 100 µM | U-251 > 100 µM | LOX IMVI 93.5 µM | OVCAR-8 > 100 µM | SK-OV-3 > 100 µM
